Results taken from US12048686B2, “Compositions and methods for activating NRF2-dependent gene expression” (The University of Chicago, priority 2018, dated 2024).

Key:
alveolar macrophages = assay: PM exposure of alveolar macrophages (Example 6); format: cell-based
Excerpt: FIG. 30A-D. CBR-470 activates NRF2 and inhibits PM-induced inflammatory cytokine production from alveolar macrophages. (a-c) Indicated transcript levels in response to PM exposure for 4 hr in the presence and absence of CBR-470, PGK1 inhibitor (10 micromolar). (d) Western blot analysis of NRF2 protein levels under the conditions in a-c.
FIG. 31. Time dependent effects of CBR-470-1 on alveolar macrophage cytokine mRNA levels at specific timepoints
FIG. 32. […] This represents a distinct mechanism of action compared to many other pharmacologic NRF2 activators, which achieve efficacy through induction of ROS (reactive oxygen species).
Indicated transcript levels in response to PM exposure for 4 hr in the presence and absence of CBR-470-1, PGK1 inhibitor (10 micromolar). Western blot analysis of NRF2 protein levels. PM-exposure also results in activation of the NRF2 pathway, which is confirmed by increased transcript levels of its prototypical target Nqo1 (FIG. 30c) and NRF2 protein accumulation (FIG. 30d). […] FIG. 31 illustrates time dependent effects of CBR-470-1 on alveolar macrophage cytokine mRNA levels at specific timepoints. […] This represents a distinct mechanism of action compared to many other pharmacologic NRF2 activators, which achieve efficacy through induction of ROS (reactive oxygen species).

IMR32 cells = assay: IMR32 viability with co-treatments (cell titer glo); format: cell-based; conditions: IMR32 cells, 48 hrs, combinations of doses with BBGC
Experimental: FIG. 38. PGK1 toxicity can be rescued with metabolites that are involved with GSH biosynthesis and quenching of reactive oxygen species and methylglyoxal. […] IMR32 cells treated for 48 hr in presence of indicated drugs.
PGK1 toxicity can be rescued with metabolites that are involved with GSH biosynthesis and quenching of reactive oxygen species and methylglyoxal.
IMR32 cells were treated for 48 hrs with CBR-470-1 and/or BBGC at combinations of doses in a synergy matrix (FIG. 41). […] Viability measured using cell titer glo assay (Promega). Viability decreased at higher concentrations of CBR-470-1 and BBGC start at 5 uM. […] Sensitivity of cell lines to direct inhibition of GLO1 (which detoxifies MGO) is generally correlated with sensitivity to PGK1 inhibition with CBR-470-1-consistent with MGO buildup playing a role in toxicity.

PGK1 = target: T1, PGK1 (Homo sapiens, UniProt P00558); assay: Dye-based thermal denaturation assay; format: binding; conditions: recombinant PGK1, compound 20 μM
T1 sequence (P00558 1-417): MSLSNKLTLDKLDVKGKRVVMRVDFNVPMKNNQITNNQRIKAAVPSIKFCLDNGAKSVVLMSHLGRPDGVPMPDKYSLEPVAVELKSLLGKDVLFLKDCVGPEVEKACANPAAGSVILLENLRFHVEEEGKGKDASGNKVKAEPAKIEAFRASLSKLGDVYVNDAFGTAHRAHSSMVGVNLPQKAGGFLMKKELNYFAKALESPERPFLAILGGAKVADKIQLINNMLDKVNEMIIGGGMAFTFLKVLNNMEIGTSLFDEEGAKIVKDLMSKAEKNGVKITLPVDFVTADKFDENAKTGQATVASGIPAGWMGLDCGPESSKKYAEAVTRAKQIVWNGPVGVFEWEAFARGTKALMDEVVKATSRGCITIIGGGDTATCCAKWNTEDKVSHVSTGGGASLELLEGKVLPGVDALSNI
Experimental: FIG. 5A-E. A photoactivatable affinity probe-based approach identifies PGK1 as the relevant cellular target of CBR-470-1. (a) Silver staining and anti-biotin Western blots of ammonium sulfate fractionated lysates from UV-irradiated IMR32 cells treated with 5 μM for 1 hour with or without CBR-470-1 competition (250 μM) (n=3). Shown on the right are initial proteomic target results from gel-band digestion and LC-MS/MS analysis. (b) Dye-based thermal denaturation assay with recombinant PGK1 in the presence CBR-470-1 (20 μM) or vehicle alone (n=3). Calculated Tm values are listed. (c, d) Dose-dependent thermal stability assay of recombinant PGK1 and GAPDH in the presence of increasing doses of CBR-470-1 near the Tm of both proteins (57° C.) (c) (n=5) or room temperature (d) (n=3). Western blot of sample supernatants after centrifugation (13,000 rpm) detected total PGK1 and GAPDH protein, which were plotted in Prism (below). (e) ARE-LUC reporter activity in HEK293T cells with transient shRNA.
Dye-based thermal denaturation assay. Thermal denaturation experiments were performed using a Protein Thermal Shift Dye Kit (ThermoFisher, 4461146). […] Fluorescence values were recorded using a Viia7 Real-Time PCR instrument according to supplied instructions.

[1] = test system: NRF2-dependent luciferase reporter (pTI-ARE-LUC); assay: ARE-LUC reporter assay in HEK293T cells with PGK1 knockdown or overexpression; format: cell-based
Experimental: FIG. 1A-D. CBR-470-1-dependent inhibition of glycolysis activates NRF2 signaling. […] PGK1, Actin and Tubulin protein levels are shown from representative experiments (n=3). (c) Heat map depiction of relative metabolite levels in IMR32 cells treated for 30 min with CBR-470-1 (left) or viral shRNA knockdown of PGK1 (right) relative to DMSO and scramble shRNA controls, respectively. BPG refers to both 2,3-BPG and 1,3-BPG, whereas 1,3-BPG specifically refers to the 1,3-isomer.
High throughput screening and ARE-LUC reporter assay. For high throughput screening, IMR32 cells were plated at 5×10^3 cells per well in white 384-well plates in 40 μL of growth medium. […] After 24 hour incubation, ARE-LUC luminance values were recorded on an Envision instrument after the addition of 30 μL of Bright Glo reagent solution (Promega, diluted 1:3 in water). […] For overexpression and knockdown experiments in HEK293T with ARE-LUC reporter readouts, 5×10^5 cells were plated on poly-d-lysine coated plates and transfected with 1.5 μg of overexpression or shRNA plasmid and 500 ng of pTI-ARE-LUC using Optimem medium and Fugene in the same mode as above. […] ARE-LUC luminance values were recorded on an Envision plate reader 24 hours later by the addition of 75 μL of Bright Glo reagent solution (1:3 in water).

[2] = control and PM-treated cells, PM 4 hr

CC(C)CN[C@H]1CS(=O)(=O)C[C@@H]1S(=O)(=O)c1ccc(Cl)cc1 [CBR-470-1] was tested, and the ROS elevation (alveolar macrophages; alveolar macrophages) was “does not cause significant ROS elevation in alveolar macrophages”, the overall cellular bioenergetics (alveolar macrophages; alveolar macrophages) was “only a slight decrease in overall cellular bioenergetics” and the “Il6 mRNA levels” value (alveolar macrophages; [2]) was “dose-dependent decreases in 116 and Tnfα mRNA levels in both control and PM-treated cells”. For the same compound, the “Tnfα mRNA levels” value (alveolar macrophages; [2]) was “dose-dependent decreases in 116 and Tnfα mRNA levels in both control and PM-treated cells”, the “NRF2-signaling (Nqo1 transcript, NRF2 protein)” value (alveolar macrophages; control and PM-treated macrophages) was “activates NRF2-signaling in both control and PM-treated macrophages” and the “viability in synergy matrix with BBGC” value (IMR32 cells) was “synergistic effects on viability rather than additivity”. The “shift in PGK1 thermal stability” value (PGK1) was “consistent shift in PGK1 stability”, the “EC50 of ARE-LUC reporter activation” value ([1]; knockdown of PGK1) was “decreased” and the “EC50 of ARE-LUC reporter activation” value ([1]; overexpression of PGK1) was “increased”.
